According to patent US20240245770A1, “COMPOSITIONS AND METHODS FOR TREATING NEUROMUSCULAR DISORDERS” (The Regents of the University of California, priority 2019, published 2024):

Experiments:
OSCSCs = test: NAC blocking of H2O2 mediated cell death in OSCSCs; assay type: cell-based, human; conditions: NAC 20 mM, 24 hours, FIG. 68
[1] = system: Dental Pulp Stromal Cells (DPSCs); test: NAC blocking of H2O2 mediated cell death in DPSCs; assay type: cell-based, human; conditions: NAC 20 mM, 24 hours, FIG. 67
Protocol: Testing and selection of the best NAC to be used in ALS treatment. […] Afterwards DPSCs were detached, and the viability of cells was determined after PI staining followed by flow cytometric analysis. In this figure the decrease in FS/ss and the percentage of PI stained cells were assessed.

[2] = system: Oral squamous carcinoma cells (OSCCs) and Oral squamous stem cell carcinoma (OSCSCs); test: NAC blocking of CDDP mediated cell death (PI staining, flow cytometry); assay type: cell-based, human; conditions: OSCC compared with OSCSCs, 24 hours
Protocol: Testing and selection of the best NAC to be used in ALS treatment. […] Afterwards OSCCs and OSCSCs were detached, and the viability of cells was determined after PI staining followed by flow cytometric analysis. In this figure Forward and Side Scatters (Fs/ss) were assessed since decrease in the Fs/ss is seen in cells undergoing cell death.
Testing and selection of the best NAC to be used in ALS treatment. […] Afterwards OSCCs and OSCSCs were detached, and the viability of cells was determined after PI staining followed by flow cytometric analysis. In this figure the percentage of PI stained cells were assessed.

ALS = conditions: cited from earlier work

## CC(=O)N[C@@H](CS)C(=O)O [NAC-M]
OSCSCs
  H2O2 mediated cell death (Fs/ss and PI positive cells): able to inhibit H2O2 mediated cell death effectively
[1]
  H2O2 mediated cell death (Fs/ss and PI positive cells): able to inhibit H2O2 mediated cell death effectively

## [NH2][Pt]([NH2])([Cl])[Cl] [CDDP, Cisplatin]
[2]
  cell death induced by CDDP: induces more of the cell death in OSCC than in OSCSCs

## Nc1nc2ccc(OC(F)(F)F)cc2s1 [Riluzole]
ALS
  extension of life: about two to three
